This passage reports inhibition and Ki results from ChEMBL document CHEMBL1129530, “Novel alpha-amino-3-hydroxy-5-methylisoxazole-4-propionate receptor antagonists: synthesis and structure-activity relationships of 6-(1H-imidazol-1-yl)-7-nitro-2,3(1H,4H)-pyrido[2,3-b]pyrazinedione and related compounds” (J Med Chem, 1996).

Common to all, as to format: cell membranes
Test [1] addresses Glutamate receptor ionotropic, AMPA (Rattus norvegicus) (UniProt P19491+P19492+P19493+P19490). Put plainly: Inhibition [3H]AMPA binding to ionotropic glutamate receptor AMPA in rat whole brain membranes in the presence of […] KSCN.
Test [2] concerns the target Glutamate receptor ionotropic, NMDA 1 (Rattus norvegicus) (UniProt P35439). The test is described as follows: (§1) In vitro inhibition of the specific binding of [3H]Gly to N-methyl-D-aspartate glutamate receptor 1 in rat whole brain membranes except cerebellum. The conditions noted are these: concentration not given here.
Test [3] has as its target Glutamate receptor ionotropic, AMPA (Rattus norvegicus, UniProt P19490+P19491+P19492+P19493). The test is described as follows: In vitro inhibition of the specific binding of [3H]AMPA to Ionotropic glutamate receptor AMPA in rat whole brain membranes in the presence of […] KSCN.
Test [4] concerns the target Glutamate receptor ionotropic, NMDA 1 (Rattus norvegicus, UniProt P35439). The test is described as §1.

Broadly, the inhibition is the change of the read-out against control, counted positive when it falls. Regarding `Oc1ccc2nc(O)c(O)nc2n1`, in test [1], the inhibition came to 37%.

For orientation: Ki means the equilibrium dissociation constant of an inhibitor or competing ligand from its target. In the case of `O=[N+]([O-])c1cc2nc(O)c(O)nc2nc1N1CCOCC1`, in test [2], the inhibition worked out at 14%. In addition, in test [3], the Ki stood at 920 nM.

For `O=[N+]([O-])c1cnc2nc(O)c(O)nc2c1`, the Ki in test [3] was 1100 nM.

As for `COc1nc2[nH]c(=O)c(=O)[nH]c2cc1[N+](=O)[O-]`, the Ki was 370 nM in test [4] and 700 nM in test [3].

For the compound `O=[N+]([O-])c1cc2nc(O)c(O)nc2nc1[N+](=O)[O-]`, the figures for the Ki in test [4] and in test [3] were 8000 nM and 860 nM, respectively.

As for `Oc1nc2ccncc2nc1O`, in test [1], the inhibition stood at 32%.

With `Oc1nc2cccnc2nc1O`, the inhibition in test [1] turned out to be 22%.

As to `Cc1ccc2nc(O)c(O)nc2n1`, the inhibition in test [1] is 31%.

In the case of `O=[N+]([O-])c1cc2nc(O)c(O)nc2nc1-n1ccnc1`, the inhibition in test [2] came to 0%. Besides, the Ki in test [3] came out at 140 nM.

`Oc1nc2ccc(Cl)nc2nc1O`: the inhibition in test [1] was 29%.

For the compound `Oc1nc2cncnc2nc1O`, the inhibition in test [1] was found to be 62%.

As to `Cc1cnc2nc(O)c(O)nc2c1`, the inhibition in test [1] was determined as 74%.

Take `Oc1nc2ccc(N3CCOCC3)nc2nc1O`: the inhibition in test [1] was found to be 32%.

As for `O=c1[nH]c2cc(-n3ccnc3)c([N+](=O)[O-])cc2[nH]c1=O`, in test [2], the inhibition was found to be 16%.

Turning to `Oc1nc2ccc(-n3ccnc3)nc2nc1O`, in test [1], the inhibition amounted to 76%.

In the case of `CSc1ccc2nc(O)c(O)nc2n1`, in test [1], the inhibition came out at 55%.

With `CNc1ccc2nc(O)c(O)nc2n1`, in test [1], the inhibition was determined as 30%.

As to `COc1ccc2nc(O)c(O)nc2n1`, the inhibition in test [1] came to 41%.

As for `O=[N+]([O-])c1ccc2nc(O)c(O)nc2n1`, the inhibition in test [1] amounted to 66%.

In the case of `CS(=O)(=O)c1ccc2nc(O)c(O)nc2n1`, in test [1], the inhibition was 56%.
